Results reported in article PMC4865820, “Branched Peptide, B2088, Disrupts the Supramolecular Organization of Lipopolysaccharides and Sensitizes the Gram-negative Bacteria” (Scientific Reports, 2016).
Positions of bridges follow the written chain, without caps; N, C: chain ends. Non-standard residues stand in square brackets, D forms with d. Residues, ends and D or L forms follow the SMILES beside them. Chains are numbered I, II in the order given. Bip = N[C@@H](Cc1ccc(-c2ccccc2)cc1)C(=O)O; Nle = CCCC[C@H](N)C(=O)O; Nva = CCC[C@H](N)C(=O)O

What was measured:
[1] = test system: LPS (E. coli serotype 055:B5); experiment: BODIPY TR cadaverine (BC) displacement assay with LPS; type: binding; conditions: no unit in table; ED50 values in μM; 5 mM HEPES pH 7.4; duplicates; read-out: BC50 (LPS binding)
Procedure, shortened: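 Peptides (0.02–25.6 μM, two-fold dilutions) mixed 1:1 with BODIPY TR cadaverine:LPS (E. coli 055:B5) mixture in 5 mM HEPES pH 7.4; fluorescence at 580/620 nm. Displacement normalized to polymyxin B (Fmax) and probe:LPS alone (F0); ED50 from curve fit, duplicates.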

P. aeruginosa ATCC 27853 [2] = experiment: microbe, parasite or virus in culture; type: cell-based; conditions: ATCC 27853, 24 h
Experimental: (§1) MIC of each peptide was determined using the microdilution method in a 96 well microtitre plates (SPL Life Sciences Co., Ltd, Korea). Two-fold serial dilutions of each peptide in Mueller-Hinton Broth (MHB) was prepared from a 1 mg/ml stock solution of the peptide in the same broth, to obtain a final concentration in the range of 0.0976–50 μg/ml in each well. Bacterial suspensions (P. aeruginosa ATCC 27853, P. aeruginosa 4877, P. aeruginosa 23155, K. pneumoniae ATCC 10031 and K. pneumoniae 4299) were prepared by suspending the overnight cultured bacteria in saline and adjusting the inoculum to ~10^8 colony forming units (CFU) per ml. A further 150-fold dilution was then prepared in MHB to achieve a final cell density of 10^5–10^6 CFU/ml. In each well, 100 μl of inoculum was mixed with the equal volume of peptides at their 2× concentration. Positive and negative controls contained 200 μl of inoculum (without any peptide) and broth alone (no peptide/inoculum) respectively. Another negative control in which MHB containing 200 μl of peptide alone in its highest concentration tested (50 μg/ml) was also included to ensure that the optical density measured in the test wells was not due to turbidity of the peptides in solution. The 96 well polystyrene plates were then incubated at 37 °C for 24 h and the optical density at 600 nm (OD600) was measured every 30 min continuously using a TECAN microplate reader (TECAN Infinite 200, Austria). All the experiments were performed in two independent duplicates and the MIC was determined as the lowest peptide concentration in which no visible growth was observed.

K. pneumoniae ATCC10031 = type: cell-based; conditions: ATCC10031, 24 h
Experimental: as §1

P. aeruginosa 23155 = type: cell-based; conditions: 23155, 24 h
Experimental: as §1

K. pneumonia 4299 = experiment: microbe, parasite or virus in culture; type: cell-based, K. pneumoniae; conditions: 24 h
Experimental: as §1

P. aeruginosa ATCC 27853 [3] = type: cell-based; conditions: ATCC 27853; for Fractional inhibitory concentration of peptide/PMB, combination with Genta: first number in parenthesis; for Fractional inhibitory concentration of antibiotic, Genta combination: second number in parenthesis
Procedure, shortened: (§2)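 Checkerboard combinations of peptide and antibiotic, each 2-fold diluted up to 1× MIC in MHB, were tested against ~10^6 CFU/ml final inoculum. Plates were incubated 24 h at 37 °C, with growth read at OD600. FICI was the sum of the combination-to-alone MIC ratios for each agent, and the lowest FICI from duplicate experiments was reported.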

P. aeruginosa DR4877/07 = type: cell-based; conditions: for Fractional inhibitory concentration of peptide/PMB, combination with Chloarm / Fractional inhibitory concentration of peptide/PMB, combination with Erythro / Fractional inhibitory concentration of peptide/PMB, combination with Levo / Fractional inhibitory concentration of peptide/PMB, combination with Tobra: first number in parenthesis; for Fractional inhibitory concentration of antibiotic, Chloarm combination / Fractional inhibitory concentration of antibiotic, Erythro combination / Fractional inhibitory concentration of antibiotic, Levo combination / Fractional inhibitory concentration of antibiotic, Tobra combination: second number in parenthesis
Procedure, shortened: as §2

P. aeruginosa ATCC 9027 = experiment: Outer membrane permeability assay (NPN); type: cell-based; conditions: no unit in table; Fig. S5 axis [Peptide], μM; 10 μM NPN, 5 mM HEPES pH 7.4, ex 355/em 405 nm; average of two titrations; read-out: PC50 (peptide concentration for half-maximal NPN intensity, OM permeability)
Experimental: The ability of each peptide to permeabilize the OM of Gram-negative organisms was determined using the hydrophobic fluorescent probe 1-N-phenylnaphthylamine (NPN) as previously reported. P. aeruginosa ATCC 9027 cells from an overnight MHB culture were harvested after centrifuging at 3000 rpm for 10 minutes. The pellet was washed twice, suspended in 5 mM HEPES (N- 2-hydroxyethylpiperazine-N’-2 ethanesulfonic acid) buffer (pH 7.4) and adjusted to an OD600 of 0.200. A suspension containing 600 μl of bacteria cells and 1 μl of a concentrated stock solution of NPN was mixed into a 10 mm stirred quartz cuvette so that the final concentration of the probe remained 10 μM. Aliquots containing 1 μl of each peptide in various concentrations (100, 50, 25, 15, 10, 5, 2.5 and 1 μg/ml) were added upon NPN dye stabilization. The fluorescence intensity was monitored using a Quanta Master spectrophotometer with a constant slit width of 0.5 nm, excitation and emission wavelengths set at 355 nm and 405 nm respectively. The peptide concentration required for half-maximal intensity (PC50) was determined by sigmoidal curve fitting using Graphpad Prism software. The experimental data is average of two independent titration experiments.

With `N=C(N)NCCC[C@H](NC(=O)CNC(=O)[C@@H](N)CCCNC(=N)N)C(=O)N[C@@H](CCCCN)C(=O)N[C@@H](Cc1ccc(-c2ccccc2)cc1)C(=O)N[C@@H](Cc1ccc(-c2ccccc2)cc1)C(=O)N[C@@H](CCCNC(=N)N)C(=O)N[C@@H](CCCNC(=N)N)C(=O)NCCCC[C@H](NC(=O)[C@H](CCCNC(=N)N)NC(=O)[C@H](CCCNC(=N)N)NC(=O)[C@H](Cc1ccc(-c2ccccc2)cc1)NC(=O)[C@H](Cc1ccc(-c2ccccc2)cc1)NC(=O)[C@H](CCCCN)NC(=O)[C@H](CCCNC(=N)N)NC(=O)CNC(=O)[C@@H](N)CCCNC(=N)N)C(=O)N[C@@H](CCCCN)C(=O)O` [(RGRKFbiFbiRR)2KK] (I: H-RGRK[Bip][Bip]RRKK-OH / II: H-RGRK[Bip][Bip]RR; amide I:9-II:C; N-terminus and C-terminus assumed) as the molecule, how does the EC50 [1] read?
The EC50 was 2.33 ± 0.06 µM.

And the “Minimum Inhibitory Concentration against P. aeruginosa ATCC 27853” value (P. aeruginosa ATCC 27853 [2])?
Its value is 9.8 µM.

And the “Minimum Inhibitory Concentration against K. pneumoniae ATCC10031” value (K. pneumoniae ATCC10031)?
The value was 9.8 µM.

What about the “Minimum Inhibitory Concentration against P. aeruginosa 23155” value (P. aeruginosa 23155) of the same molecule?
The value was 4.9 µM.

And the “Minimum Inhibitory Concentration against K. pneumonia 4299” value (K. pneumonia 4299)?
Its value is 19.6 µM.

And the “Fractional inhibitory concentration of peptide/PMB, combination with Genta” value (P. aeruginosa ATCC 27853 [3])?
Its value is 0.5.

And the “Fractional inhibitory concentration of antibiotic, Genta combination” value (P. aeruginosa ATCC 27853 [3])?
Its value is 0.06.

What about the “Fractional inhibitory concentration of peptide/PMB, combination with Chloarm” value (P. aeruginosa DR4877/07) of the same molecule?
Its value is 0.5.

And the “Fractional inhibitory concentration of peptide/PMB, combination with Erythro” value (P. aeruginosa DR4877/07)?
Its value is “(0.5,0.5)”.

What about the “Fractional inhibitory concentration of peptide/PMB, combination with Levo” value (P. aeruginosa DR4877/07) of the same molecule?
The value was “(0.5,0.5)”.

What about the “Fractional inhibitory concentration of peptide/PMB, combination with Tobra” value (P. aeruginosa DR4877/07) of the same molecule?
The value was “(0.25,0.25)”.

What about the “Fractional inhibitory concentration of antibiotic, Chloarm combination” value (P. aeruginosa DR4877/07) of the same molecule?
Its value is 0.06.

And the “Fractional inhibitory concentration of antibiotic, Erythro combination” value (P. aeruginosa DR4877/07)?
Its value is “(0.5,0.5)”.

And the “Fractional inhibitory concentration of antibiotic, Levo combination” value (P. aeruginosa DR4877/07)?
The value was “(0.5,0.5)”.

And the “Fractional inhibitory concentration of antibiotic, Tobra combination” value (P. aeruginosa DR4877/07)?
The value was “(0.25,0.25)”.

What about the EC50 (P. aeruginosa ATCC 9027) of the same molecule?
Its EC50 is 22.2 ± 1.6 µM.

With `CCCC[C@H](NC(=O)[C@H](CCCCN)NC(=O)[C@H](CCCNC(=N)N)NC(=O)CNC(=O)[C@@H](N)CCCNC(=N)N)C(=O)N[C@@H](CCCC)C(=O)N[C@@H](CCCNC(=N)N)C(=O)N[C@@H](CCCNC(=N)N)C(=O)NCCCC[C@H](NC(=O)[C@H](CCCNC(=N)N)NC(=O)[C@H](CCCNC(=N)N)NC(=O)[C@H](CCCC)NC(=O)[C@H](CCCC)NC(=O)[C@H](CCCCN)NC(=O)[C@H](CCCNC(=N)N)NC(=O)CNC(=O)[C@@H](N)CCCNC(=N)N)C(=O)N[C@@H](CCCCN)C(=O)O` [(RGRKNleuNleuRR)2KK] (I: H-RGRK[Nle][Nle]RRKK-OH / II: H-RGRK[Nle][Nle]RR; amide I:9-II:C; N-terminus and C-terminus assumed) as the molecule, how does the EC50 [1] read?
Its EC50 is 1.62 ± 0.02 µM.

What about the “Minimum Inhibitory Concentration against P. aeruginosa ATCC 27853” value (P. aeruginosa ATCC 27853 [2]) of the same molecule?
The value was 2.7 µM.

What about the “Minimum Inhibitory Concentration against K. pneumoniae ATCC10031” value (K. pneumoniae ATCC10031) of the same molecule?
The value was 2.7 µM.

And the “Minimum Inhibitory Concentration against P. aeruginosa 23155” value (P. aeruginosa 23155)?
Its value is 2.7 µM.

And the “Minimum Inhibitory Concentration against K. pneumonia 4299” value (K. pneumonia 4299)?
Its value is 5.3 µM.

And the “Fractional inhibitory concentration of peptide/PMB, combination with Genta” value (P. aeruginosa ATCC 27853 [3])?
Its value is 0.5.

And the “Fractional inhibitory concentration of antibiotic, Genta combination” value (P. aeruginosa ATCC 27853 [3])?
The value was 0.01.

And the “Fractional inhibitory concentration of peptide/PMB, combination with Chloarm” value (P. aeruginosa DR4877/07)?
Its value is 0.5.

What about the “Fractional inhibitory concentration of peptide/PMB, combination with Erythro” value (P. aeruginosa DR4877/07) of the same molecule?
Its value is 0.5.

And the “Fractional inhibitory concentration of peptide/PMB, combination with Levo” value (P. aeruginosa DR4877/07)?
Its value is 0.5.

What about the “Fractional inhibitory concentration of peptide/PMB, combination with Tobra” value (P. aeruginosa DR4877/07) of the same molecule?
The value was 0.06.

And the “Fractional inhibitory concentration of antibiotic, Chloarm combination” value (P. aeruginosa DR4877/07)?
The value was 0.06.

And the “Fractional inhibitory concentration of antibiotic, Erythro combination” value (P. aeruginosa DR4877/07)?
Its value is 0.03.

And the “Fractional inhibitory concentration of antibiotic, Levo combination” value (P. aeruginosa DR4877/07)?
The value was 0.25.

What about the “Fractional inhibitory concentration of antibiotic, Tobra combination” value (P. aeruginosa DR4877/07) of the same molecule?
The value was 0.5.

What about the EC50 (P. aeruginosa ATCC 9027) of the same molecule?
Its EC50 is 16.4 ± 0.1 µM.

What does the source list for `CCC[C@H](NC(=O)[C@H](CCCCN)NC(=O)[C@H](CCCNC(=N)N)NC(=O)CNC(=O)[C@@H](N)CCCNC(=N)N)C(=O)N[C@@H](CCC)C(=O)N[C@@H](CCCNC(=N)N)C(=O)N[C@@H](CCCNC(=N)N)C(=O)NCCCC[C@H](NC(=O)[C@H](CCCNC(=N)N)NC(=O)[C@H](CCCNC(=N)N)NC(=O)[C@H](CCC)NC(=O)[C@H](CCC)NC(=O)[C@H](CCCCN)NC(=O)[C@H](CCCNC(=N)N)NC(=O)CNC(=O)[C@@H](N)CCCNC(=N)N)C(=O)N[C@@H](CCCCN)C(=O)O` [(RGRKNvalNvalRR)2KK] (I: H-RGRK[Nva][Nva]RRKK-OH / II: H-RGRK[Nva][Nva]RR; amide I:9-II:C; N-terminus and C-terminus assumed)?
EC50 [1]: 1.45 ± 0.01 µM; Minimum Inhibitory Concentration against P. aeruginosa ATCC 27853 (P. aeruginosa ATCC 27853 [2]): 10.9 µM; Minimum Inhibitory Concentration against K. pneumoniae ATCC10031 (K. pneumoniae ATCC10031): 10.9 µM; Minimum Inhibitory Concentration against P. aeruginosa 23155 (P. aeruginosa 23155): 5.5 µM; Minimum Inhibitory Concentration against K. pneumonia 4299 (K. pneumonia 4299): 21.8 µM; Fractional inhibitory concentration of antibiotic, Genta combination (P. aeruginosa ATCC 27853 [3]): 0.13; Fractional inhibitory concentration of peptide/PMB, combination with Chloarm (P. aeruginosa DR4877/07): (0.25,0.25); Fractional inhibitory concentration of peptide/PMB, combination with Erythro (P. aeruginosa DR4877/07): (0.5,0.5); Fractional inhibitory concentration of peptide/PMB, combination with Levo (P. aeruginosa DR4877/07): 0.5; Fractional inhibitory concentration of peptide/PMB, combination with Tobra (P. aeruginosa DR4877/07): 0.25; Fractional inhibitory concentration of antibiotic, Chloarm combination (P. aeruginosa DR4877/07): (0.25,0.25); Fractional inhibitory concentration of antibiotic, Erythro combination (P. aeruginosa DR4877/07): (0.5,0.5); Fractional inhibitory concentration of antibiotic, Levo combination (P. aeruginosa DR4877/07): 0.25; Fractional inhibitory concentration of antibiotic, Tobra combination (P. aeruginosa DR4877/07): 0.13; EC50 (P. aeruginosa ATCC 9027): 14.9 ± 1.2 µM
